In patent US20050014849A1, “Antifungal phenylethylene” (priority 2001, published 2005):
Values after ≈ are worked out from the molar mass of the structure shown.

Tests used:
[1] = test system: Aspergillus fumigatus ATCC 96918; assay: Broth macrodilution MIC/MFC, filamentous fungi; type: cell-based; settings: for MFC / MIC: Aspergillus fumigatus
Experimental: (§1) Susceptibility testing of filamentous fungi was also conducted. Broth macrodilution susceptibility testing of P. lilacinus, Rhizopus spp. and Aspergillus spp. was performed in accordance with a proposed standardized procedure with slight modification. To induce conidium and sporangiospore formation, fungi were grown on PDA slants at 35° C. for 6 days (P. lilacinus, Rhizopus spp., all Aspergillus species except A. nidulans) or 3 days (A. nidulans). Fungal slants were covered with sterile 0.85% NaCl (P. lilacinus, Rhizopus spp., all Aspergillus species except A. nidulans) or 0.05% Tween 80 (A. nidulans), and suspensions were made by gently probing the colonies with the tip of a sterile Pasteur pipette. The resulting mixture of hyphal fragments and conidia or sporangiospores was withdrawn and transferred to a sterile clear microcentrifuge tube, and heavy particles were allowed to settle for 10 min. The upper homogenous suspension was transferred to a sterile microcentrifuge tube, vortexed for 15 s, adjusted spectrophotometrically, and diluted in sterile 0.165 M MOPS-buffered RPMI medium, pH 7.0, to yield final inocula ranging from 0.5-2.5×10^3 cfu/ml. Susceptibility to TMPN was then determined by broth macrodilution as described above for yeast isolates. MICs were read after 48 h The MIC was defined as the lowest concentration of TMPN that inhibited all visible growth of the test organism (optically clear).
(§2) Minimum fungicidal concentrations (MFCs) were determined by subculturing 0.1 ml from each tube with no visible growth in the MIC broth macrodilution series onto the appropriate drug-free plates (see Fungal Strains section above).
Possible host effects were also evaluated. Broth macrodilution assays were performed with RPMI medium prepared at pH 5, pH 6, and pH 7, and in RPMI medium with and without 50% normal human serum (Lampire Biological Labs). The pH experiments were performed twice on separate days.

[2] = test system: murine P388 lymphocytic leukemia cell line and six human cancer cell lines; assay: Sulforhodamine B cancer cell growth inhibition (summary over lines); type: cell-based
Experimental: (§3) An investigation TMPN's in vitro antineoplastic activity was also conducted. This investigation included an analysis of both cell growth, and of the effects of TMPN upon tubulin. Inhibition of cancer cell growth was assessed using the Sulforhodamine B assay as previously described. Briefly, cells in 5% fetal calf serum/RPMI-1640 were inoculated into 96 well plates, incubated 24 h and 10-fold dilutions of TMPN added. After a 48 h incubation, plates were fixed with trichloroacetic acid, washed, stained with Sulforhodamine B and read with an automated microtiter plate reader.

P388 leukemia = assay: Sulforhodamine B cancer cell growth inhibition; type: cell-based, murine; settings: Mus musculus, 48 h, read-out: GI50 (inhibition of 50% of cell growth)
Experimental: as §3

C. neoformans ATCC 14116 = assay: Broth macrodilution MIC/MFC; type: cell-based, Cryptococcus neoformans
Experimental: (§4) TMPN was screened against yeasts by the broth macrodilution assay according to the NCCLS [7]. Yeasts were suspended and diluted as recommended to yield final inocula ranging from 0.5-2.5×10^3 cfu/ml. Tests were performed in sterile 12 by 75 mm plastic tubes containing two-fold dilutions of TMPN in 0.165 M morpholinepropanesulfonic acid buffered RPMI 1640 medium (pH 7.0). One tube was again left drug free (but contained an equivalent volume of DMSO) for a turbidity control. Tubes were incubated without agitation at the appropriate temperature (see Fungal Strains section above). MICs were determined after 72 h for Cryptococcus and after 48 h for other yeast genera. The MIC was defined as the lowest concentration of TMPN that inhibited all visible growth of the test organism (optically clear).
as §2

C. neoformans (24) = assay: Broth macrodilution MIC/MFC; type: cell-based, Cryptococcus neoformans
Experimental: as §4, §2

C. neoformans ATCC 32045 = assay: Broth macrodilution MIC/MFC; type: cell-based, Cryptococcus neoformans
Experimental: as §4, §2

C. neoformans ATCC 66031 = assay: Broth macrodilution MIC/MFC; type: cell-based, Cryptococcus neoformans
Experimental: as §4, §2

[3] = test system: Paecilomyces lilacinus (1); assay: Broth macrodilution MIC/MFC, filamentous fungi; type: cell-based
Experimental: as §1, §2

[4] = test system: Rhizopus oligosporus ATCC 22959; assay: Broth macrodilution MIC/MFC, filamentous fungi; type: cell-based
Experimental: as §1, §2

T. mucoides ATCC 90046 = assay: Broth macrodilution MIC/MFC; type: cell-based, Trichosporon mucoides
Experimental: as §4, §2

[5] = test system: C. parapsilosis ATCC 22019; assay: Broth macrodilution MIC/MFC; type: cell-based, Candida parapsilosis
Experimental: as §4, §2

C. parapsilosis (10) = assay: Broth macrodilution MIC/MFC; type: cell-based, Candida parapsilosis
Experimental: as §4, §2

fungal = assay: Frequency of fungal spontaneous mutations to resistance (summary); type: cell-based; settings: summary statement
Experimental: Determination of the frequency of occurrence of spontaneous mutants was performed as previously described. Overnight cultures of C neoformans (ATCC 90112), C. albicans (ATCC 90028) and Trichosporon inkin (ATCC 18020) were diluted to an OD530 nm=0.3. 0.1 ml of each preparation was spread onto SDA plates containing four or eight times the broth macrodilution MIC of TMPN. The starting inoculum for each organism was also diluted and plated onto drug-free SDA plates for determination of cfu/ml. After a 48 h incubation at the appropriate temperature (see Fungal Strains section above), the number of colonies on drug-supplemented SDA was counted. The frequency of occurrence of spontaneous mutants was calculated by dividing the number of colonies on drug-containing plates by the number of colonies in the inoculum. When no colonies were visualized on drug-containing plates, the calculation was (<) 1 colony divided by the number of colonies in the inoculum.

[6] = Aspergillus fumigatus ATCC 96918
[7] = ATCC96918, Aspergillus fumigatus ATCC 96918, 50% human serum
[8] = ATCC96918, Aspergillus fumigatus ATCC 96918, no serum
[9] = ATCC96918, pH 5, Aspergillus fumigatus ATCC 96918, pH 5
[10] = ATCC96918, pH 5, Aspergillus fumigatus ATCC 96918, pH 5, repeat experiment
[11] = ATCC96918, pH 6, Aspergillus fumigatus ATCC 96918, pH 6
[12] = ATCC96918, pH 6, Aspergillus fumigatus ATCC 96918, pH 6, repeat experiment
[13] = ATCC96918, pH 7, Aspergillus fumigatus ATCC 96918, pH 7
[14] = ATCC96918, pH 7, Aspergillus fumigatus ATCC 96918, pH 7, repeat experiment

For `COc1cc(C=C[N+](=O)[O-])cc(OC)c1OC` [TMPN, 1-(3′,4′,5′-trimethoxyphenyl)-2-nitro-ethylene], the “MFC Range” value [1, 6] was >64 µg/mL, the “MIC Range” value [1, 6] was 8 µg/mL (≈ 33.4 µM) and the MFC [1, 7] was > 64 µg/mL. For the same compound, the MIC [1, 7] was 16 µg/mL (≈ 66.9 µM), the MFC [1, 8] was 16 µg/mL (≈ 66.9 µM) and the MIC [1, 8] was 8 µg/mL (≈ 33.4 µM). For the same compound, the MFC [1, 9] was 32 µg/mL (≈ 134 µM), the MIC [1, 9] was 4 µg/mL (≈ 16.7 µM) and the MFC [1, 10] was > 64 µg/mL. The MIC [1, 10] was 8 µg/mL (≈ 33.4 µM), the MFC [1, 11] was 32 µg/mL (≈ 134 µM) and the MIC [1, 11] was 4 µg/mL (≈ 16.7 µM). The MFC [1, 12] was > 64 µg/mL, the MIC [1, 12] was 8 µg/mL (≈ 33.4 µM) and the MFC [1, 13] was 32 µg/mL (≈ 134 µM). For the same compound, the MIC [1, 13] was 4 µg/mL (≈ 16.7 µM), the MFC [1, 14] was > 64 µg/mL and the MIC [1, 14] was 8 µg/mL (≈ 33.4 µM). For the same compound, the GI50 ([2]; Mus musculus, P388, murine P388 and six human cancer cell lines, read-out: GI50 values, range over cell lines) was 1 to 4 µg/mL (≈ 4.18 to 16.7 µM), the “GI50 values, range over cell lines” value ([2]; murine P388 and six human cancer cell lines) was 1.1 to 4.1 µg/mL and the GI50 (P388 leukemia) was 4.15 µg/mL (≈ 17.3 µM). The “MFC Range” value (C. neoformans ATCC 14116) was 16 µg/mL (≈ 66.9 µM), the “MIC Range” value (C. neoformans ATCC 14116) was 8 µg/mL (≈ 33.4 µM) and the “MFC 50% (MFC at which 50% of the strains are killed)” value (C. neoformans (24); C. neoformans (24)) was 8 µg/mL. For the same compound, the “MFC 90% (MFC at which 90% of the strains are killed)” value (C. neoformans (24); C. neoformans (24)) was 16 µg/mL, the “MFC Range” value (C. neoformans (24); C. neoformans (24)) was 4 to 32 µg/mL and the “MIC Range” value (C. neoformans (24); C. neoformans (24)) was 2 to 16 µg/mL. The “share of isolates with MFC/MIC ratio <2” value (C. neoformans (24); C. neoformans clinical isolates) was 96%, the “share of isolates with MFC/MIC ratio ≦2” value (C. neoformans (24); Cryptococcus neoformans clinical isolates) was 96% and the MIC50 (C. neoformans (24); Cryptococcus neoformans, C. neoformans (24), read-out: MIC 50% (MIC at which 50% of the strains are inhibited)) was 4 µg/mL (≈ 16.7 µM). For the same compound, the MIC90 (C. neoformans (24); Cryptococcus neoformans, C. neoformans (24), read-out: MIC 90% (MIC at which 90% of the strains are inhibited)) was 8 µg/mL (≈ 33.4 µM), the “MFC Range” value (C. neoformans ATCC 32045) was 4 µg/mL (≈ 16.7 µM) and the “MIC Range” value (C. neoformans ATCC 32045) was 4 µg/mL (≈ 16.7 µM). The “MFC Range” value (C. neoformans ATCC 66031) was 4 µg/mL (≈ 16.7 µM), the “MIC Range” value (C. neoformans ATCC 66031) was 2 µg/mL (≈ 8.36 µM) and the “MFC Range” value [3] was 64 µg/mL (≈ 268 µM). For the same compound, the “MIC Range” value [3] was 32 µg/mL (≈ 134 µM), the “MFC Range” value [4] was >64 µg/mL and the “MIC Range” value [4] was 8 µg/mL (≈ 33.4 µM). For the same compound, the “MFC Range” value (T. mucoides ATCC 90046) was 32 µg/mL (≈ 134 µM), the “MIC Range” value (T. mucoides ATCC 90046) was 16 µg/mL (≈ 66.9 µM) and the “MFC Range” value [5] was 32 µg/mL (≈ 134 µM). For the same compound, the “MIC Range” value [5] was 16 µg/mL (≈ 66.9 µM), the “MIC Range” value (C. parapsilosis (10)) was 16 to 32 µg/mL and the “frequency of fungal spontaneous mutations to resistance” value (fungal) was < 10^−6.
